Test results reported in patent publication US8852860B2, “Sperm-specific cation channel, CatSper1 and uses therefor” (Children's Medical Center Corporation, priority 2001, dated 2014).

Columns and labels:
[1] = test system: caudal epididymal wild-type sperm; test: Ca2+ imaging of Fluo-4 loaded sperm, wild-type; type: cell-based, mouse
Protocol: (§1) For Ca^2+ imaging, sperm were prepared in HS medium (Wennemuth, et al. (2000), J Biol Chem 275, 21210-7) and loaded with 10 μM Fluo-4-AM and 0.05% Pluronic F-127 for 30 min. at room temperature. Washed cells were seeded onto Cell-Tak coated cover slips. Attached motile sperm were imaged in nonconfocal mode to avoid motion-induced fluorescence change artifacts. The 488 nm wavelength beam of an Argon-Krypton laser was used for excitation and fluorescence emission was collected at 512 nm (Zeiss LSM 410).
(§2) Wild-type and mutant sperm were loaded with Fluo-4 and their fluorescence measured by single photon confocal microscopy.

CatSper1^−/− sperm = test: Ca2+ imaging of Fluo-4 loaded sperm, CatSper1-/- mutant; type: cell-based, mouse
Protocol: as §1, §2

Nc1nc2c(nc(Br)n2[C@@H]2O[C@@H]3COP(=O)(O)O[C@H]3[C@H]2O)c(=O)[nH]1 [8-Br-cGMP]
sperm head and tail [Ca^2+]i change (Fluo-4 fluorescence) ([1]; wild-type sperm, 1 mM membrane-permeant cyclic nucleotide in bath): initiated Ca^2+ influx in sperm
cyclic nucleotide-induced Ca^2+ influx in mutant sperm (CatSper1^−/− sperm): neither cAMP nor cGMP elicited significant Ca^2+ influx

CC(=O)[C@H]1CC[C@H]2[C@@H]3CCC4=CC(=O)CC[C@]4(C)[C@H]3CC[C@]12C [progesterone]
Ca^2+ influx (control for dye loading), wild-type sperm ([1]; wild-type sperm): initiated a large Ca^2+ influx
Ca^2+ influx (control for dye loading), mutant sperm (CatSper1^−/− sperm): initiated a large Ca^2+ influx

O=C([O-])O.[Na+] [sodium bicarbonate]
[Ca^2+]i increase on addition to the bath ([1]; 20 mM in bath): induced an increase in [Ca^2+]i that was smaller than that observed with cyclic AMP or GMP

CN[C@@H]1C[C@H]2O[C@@](C)([C@@H]1OC)n1c3ccccc3c3c4c(c5c6ccccc6n2c5c31)C(=O)NC4 [staurosporine]
block of cyclic AMP and cyclic GMP induced [Ca^2+]i increase ([1]; sperm incubated with 1 μM, 10 minutes): not blocked
